# Measurements from patent US12568967B2, “Compositions comprising pyridine carboxylate herbicides with synthetic auxin herbicides or auxin transport inhibitors” (priority 2018, dated 2026).
# Columns and labels:
# [1] = tested on: Abutilon theophrasti (velvetleaf, ABUTH); assay: Greenhouse postemergence trial ABUTH; format: in vivo; details: for % visual injury, Obs: ABUTH, 140 g/ha alone
# Method: (§1) Seeds of the desired test plant species were planted in a 90:10% v/v (volume/volume) mixture of PRO-MIX® BX (Premier Tech Horticulture, Quakertown, PA, USA) and PROFILE® GREENS GRADE™ (Profile Products LLC, Buffalo Grove, IL, USA) planting mixture, which typically has a pH of 5.2 to 6.2 and an organic matter content of at least 50 percent, in plastic pots with a surface area of 103.2 square centimeters (cm^2). […] The plants were grown for 7-36 days (d) in a greenhouse with an approximate 14-hour (h) photo-period which was maintained at about 23° C. during the day and 22° C. during the night. Nutrients and water were added on a regular basis and supplemental lighting was provided with overhead metal halide 1000-Watt lamps as necessary. The plants were employed for testing when they reached the second or third true leaf stage.
# (§2) Emulsifiable concentrates of each of each pyridine carboxylate herbicide (Compound A or Compound B) were prepared at 100 grams acid equivalent per liter (g ae/L). The emulsifiable concentrates also included a safener, cloquintocet-mexyl, at 120 grams active ingredient per liter (g ai/L), unless otherwise noted below. An aliquot of each emulsifiable concentrate was placed in a 25 mL glass vial and diluted with an aqueous mixture of 1.25% (v/v) ACTIROB® B esterified rapeseed oil (Bayer Crop Science, Research Triangle Park, NC, USA) or MSO® Concentrate with LECI-TECH® methylated soybean oil (Loveland Products, Loveland, CO, USA) to obtain concentrated stock solutions at the highest application rate for each herbicide, based upon a 12 milliliter (mL) application volume at a rate of 187 liters per hectare (L/ha). The concentrated stock solutions were further diluted with an aqueous mixture of 1.25% v/v ACTIROB® B or MSO® Concentrate with LECI-TECH® to obtain stock solutions at reduced application rates for each herbicide. Spray solutions of the herbicide combinations (Compound A or Compound B plus synthetic auxin herbicide or auxin transport inhibitor) were prepared by adding weighed amounts or aliquots of the synthetic auxin herbicide or auxin transport inhibitor to the stock solutions of Compound A or Compound B to form 12-mL spray solutions in two-way combinations.
# (§3) The spray solutions were applied to the plant material with an overhead Mandel track sprayer equipped with 8002E nozzles calibrated to deliver 187 L/ha over an application area of 0.503 square meters (m^2) at a spray height of 18 inches (43 centimeters (cm)) above the average plant canopy. Control plants were sprayed in the same manner with the solvent blank. All pyridine carboxylate herbicide (component a) application rates are given as “g ae/ha” and all synthetic auxin herbicide or auxin transport inhibitor (component b) application rates are given as “g ai/ha.”
# (§4) The treated plants and control plants were placed in a greenhouse as described above and watered by sub-irrigation to prevent wash-off of the test compounds. After 20-22 d, the condition of the test plants as compared with that of the control plants was determined visually and scored on a scale of 0 to 100 percent where 0 corresponds to no injury and 100 corresponds to complete kill.
# [2] = tested on: Digitaria sanguinalis (large crabgrass, DIGSA); assay: Greenhouse postemergence trial DIGSA; format: in vivo; details: for % visual injury, Obs: DIGSA, 140 g/ha alone
# Method: as §1, §2, §3, §4
# [3] = tested on: Rumex obtusifolius (broad-leaf dock, RUMOB); assay: Greenhouse postemergence trial RUMOB; format: in vivo; details: for % visual injury, Obs: RUMOB, 140 g/ha alone
# Method: as §1, §2, §3, §4
# [4] = tested on: Lolium multiflorum (Italian ryegrass, LOLMU); assay: Greenhouse postemergence trial LOLMU; format: in vivo; details: for % visual injury, Obs: LOLMU, 140 g/ha alone
# Method: as §1, §2, §3, §4
# [5] = tested on: Setaria faberi (giant foxtail, SETFA); assay: Greenhouse postemergence trial SETFA; format: in vivo; details: for % visual injury, Obs: SETFA, 140 g/ha alone
# Method: as §1, §2, §3, §4
# [6] = tested on: Kochia scoparia (kochia, KCHSC); assay: Greenhouse postemergence trial KCHSC; format: in vivo; details: for % visual injury, Obs: 140 g/ha alone
# [7] = tested on: Echinochloa crus-galli (barnyard grass, ECHCG); assay: Greenhouse postemergence trial ECHCG; format: in vivo; details: for % visual injury, Obs: ECHCG, 140 g/ha alone
# Method: as §1, §2, §3, §4
# [8] = tested on: Polygonum convolvulus (wild buckwheat, POLCO); assay: Greenhouse postemergence trial POLCO; format: in vivo; details: for % visual injury, Obs: POLCO, 140 g/ha alone
# Method: as §1, §2, §3, §4
# [9] = tested on: Brassica napus (spring rape, BRSNN); assay: Greenhouse postemergence trial BRSNN; format: in vivo; details: diflufenzopyr 10 g/ha
# Method: The plants were grown for 7-36 days (d) in a greenhouse with an approximate 14-hour (h) photo-period which was maintained at about 23° C. during the day and 22° C. during the night. Nutrients and water were added on a regular basis and supplemental lighting was provided with overhead metal halide 1000-Watt lamps as necessary. The plants were employed for testing when they reached the second or third true leaf stage.
# The emulsifiable concentrates also included a safener, cloquintocet-mexyl, at 120 grams active ingredient per liter (g ai/L), unless otherwise noted below.
# Control plants were sprayed in the same manner with the solvent blank. All pyridine carboxylate herbicide (component a) application rates are given as “g ae/ha” and all synthetic auxin herbicide or auxin transport inhibitor (component b) application rates are given as “g ai/ha.”
# as §4
# [10] = tested on: Cirsium arvense (Canadian thistle, CIRAR); assay: Greenhouse postemergence trial CIRAR; format: in vivo; details: for % visual injury, Obs: 140 g/ha alone
# [11] = tested on: Viola tricolor (wild pansy, VIOTR); assay: Greenhouse postemergence trial VIOTR; details: for % visual injury, Obs: VIOTR, 140 g/ha alone;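 for all read-outs here: greenhouse plants sprayed at second to third true leaf stage, injury rated visually after 20-22 d against solvent-blank sprayed controls, 0 meaning no injury and 100 complete kill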
# [12] = tested on: Oryza sativa (common rice, ORYSA); assay: Greenhouse postemergence trial ORYSA; format: in vivo; details: diflufenzopyr 10 g/ha
# Method: as §1
# Emulsifiable concentrates of each of each pyridine carboxylate herbicide (Compound A or Compound B) were prepared at 100 grams acid equivalent per liter (g ae/L). […]
# as §4
# [13] = tested on: Stellaria media (chickweed, STEME); assay: Greenhouse postemergence trial STEME; format: in vivo; details: for % visual injury, Obs: STEME, 140 g/ha alone
# [14] = tested on: Sorghum vulgare (grain sorghum, SORVU); assay: Greenhouse postemergence trial SORVU; format: in vivo; details: SORVU; 140 g/ha alone
# Method: as §1
# (§5) Emulsifiable concentrates of each of each pyridine carboxylate herbicide (Compound A or Compound B) were prepared at 100 grams acid equivalent per liter (g ae/L). The emulsifiable concentrates also included a safener, cloquintocet-mexyl, at 120 grams active ingredient per liter (g ai/L), unless otherwise noted below. An aliquot of each emulsifiable concentrate was placed in a 25 mL glass vial and diluted with an aqueous mixture of 1.25% (v/v) ACTIROB® B esterified rapeseed oil (Bayer Crop Science, Research Triangle Park, NC, USA) or MSO® Concentrate with LECI-TECH® methylated soybean oil (Loveland Products, Loveland, CO, USA) to obtain concentrated stock solutions at the highest application rate for each herbicide, based upon a 12 milliliter (mL) application volume at a rate of 187 liters per hectare (L/ha). The concentrated stock solutions were further diluted with an aqueous mixture of 1.25% v/v ACTIROB® B or MSO® Concentrate with LECI-TECH® to obtain stock solutions at reduced application rates for each herbicide. Spray solutions of the herbicide combinations (Compound A or Compound B plus synthetic auxin herbicide or auxin transport inhibitor) were prepared by adding weighed amounts or aliquots of the synthetic auxin herbicide or auxin transport inhibitor to the stock solutions of Compound A or Compound B to form 12-mL spray solutions in two-way combinations. […]
# as §4
# [15] = tested on: Glycine max (volunteer soybean, GLXMA); assay: Greenhouse postemergence trial GLXMA; format: in vivo; details: GLXMA; 140 g/ha alone
# [16] = tested on: Leptochloa chinensis (Chinese sprangletop, LEFCH); assay: Greenhouse postemergence trial LEFCH; format: in vivo; details: LEFCH; 140 g/ha alone
# Method: as §1, §5, §4
# [17] = tested on: Ipomoea hederacea (ivyleaf morningglory, IPOHE); assay: Greenhouse postemergence trial IPOHE; format: in vivo; details: IPOHE; 140 g/ha alone
# Method: as §1, §2, §3, §4
# [18] = tested on: Cyperus esculentus (nutsedge, CYPES); assay: Greenhouse postemergence trial CYPES; format: in vivo; details: CYPES; 140 g/ha alone
# Method: as §1, §5, §4
# [19] = tested on: Avena fatua (wild oat, AVEFA); assay: Greenhouse postemergence trial AVEFA; format: in vivo; details: AVEFA; 140 g/ha alone
# Method: as §1, §5, §4
# [20] = tested on: Brassica napus (winter rape, BRSNW); assay: Greenhouse postemergence trial BRSNW; format: in vivo; details: Brassica napus, post-emergence, read-out: % visual injury Obs
# [21] = tested on: Alopecurus myosuroides (blackgrass, ALOMY); assay: Greenhouse postemergence trial ALOMY; format: in vivo; details: ALOMY; 140 g/ha alone
# Method: as §1, §5, §4
# [22] = tested on: Helianthus annuus (common sunflower, HELAN); assay: Greenhouse postemergence trial HELAN; format: in vivo; details: HELAN; 140 g/ha alone
# Method: as §1, §2, §3, §4
# [23] = tested on: Lamium purpureum (purple deadnettle, LAMPU); assay: Greenhouse postemergence trial LAMPU
# [24] = tested on: Anthemis arvensis (field chamomile, ANTAR); assay: Greenhouse postemergence trial ANTAR; format: in vivo
# [25] = tested on: Salsola kali (Russian thistle, SASKR); assay: Greenhouse postemergence trial SASKR; format: in vivo; details: Salsola kali, post-emergence; SASKR; Aminopyralid 10 g/ha; read-out: % visual injury Obs;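 note: greenhouse plants sprayed at second or third true leaf stage, injury rated by eye after 20-22 d against solvent-blank controls, 0 meaning no injury, 100 complete kill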
# [26] = tested on: Cyanus segetum (cornflower, CENCY); assay: Greenhouse postemergence trial CENCY; format: in vivo
# [27] = tested on: Matricaria discoidea (pineapple weed, MATMT); assay: Greenhouse postemergence trial MATMT; format: in vivo
# Method: as §1, §2, §3, §4
# [28] = tested on: Hordeum vulgare (winter barley, HORVW); assay: Greenhouse postemergence crop phytotoxicity HORVW; format: in vivo
# Method: as §1, §2, §3, §4
# [29] = tested on: Papaver rhoeas (corn poppy), herbicide-resistant (PAPRH-R); assay: Greenhouse postemergence trial PAPRH-R; format: in vivo
# [30] = tested on: Triticum aestivum (spring wheat, TRZAS); format: in vivo
# [31] = tested on: Galium aparine (cleavers, GALAP); assay: Greenhouse postemergence trial GALAP; format: in vivo; details: c1-3 Compound A 7.5/10/15; c4 Aminopyralid 5; c5-7 A 7.5/10/15 + Aminopyralid 5 g/ha
# Method: as §1, §2, §3, §4
# [32] = tested on: Hordeum vulgare (spring barley, HORVS); format: in vivo
# [33] = tested on: Matricaria chamomilla (wild chamomile, MATCH); assay: Greenhouse postemergence trial MATCH; format: in vivo; details: Matricaria chamomilla, post-emergence; MATCH; Aminopyralid 10 g/ha; read-out: % visual injury Obs;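 note: greenhouse plants sprayed at second to third true leaf stage, injury rated by eye 20-22 d later versus solvent-blank controls on 0–100 scale, 0 no injury, 100 complete kill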
# [34] = tested on: Viola arvensis (field violet, VIOAR); assay: Greenhouse postemergence trial VIOAR; format: in vivo
# [35] = tested on: Triticum aestivum (winter wheat, TRZAW); assay: Greenhouse postemergence crop phytotoxicity TRZAW; format: in vivo
# [36] = tested on: Capsella bursa-pastoris (shepherd's purse, CAPBP); assay: Greenhouse postemergence trial CAPBP; format: in vivo
# Method: as §1, §2, §3, §4
# [37] = tested on: Veronica hederifolia (ivyleaf speedwell, VERHE); assay: Greenhouse postemergence trial VERHE; format: in vivo
# [38] = tested on: Sinapis arvensis (wild mustard, SINAR); assay: Greenhouse postemergence trial SINAR; format: in vivo; details: Mutarda arvensis, post-emergence; SINAR; Aminopyralid 10 g/ha; read-out: % visual injury Obs
# [39] = tested on: Papaver rhoeas (corn poppy, PAPRH); assay: Greenhouse postemergence trial PAPRH; format: in vivo
# [40] = tested on: Veronica persica (bird's-eye speedwell, VERPE); assay: Greenhouse postemergence trial VERPE; format: in vivo
# [41] = tested on: Matricaria inodora (false chamomile, MATIN); assay: Greenhouse postemergence trial MATIN; format: in vivo
# [42] = c1-3 Compound A 7.5/10/15, c4 Aminopyralid 5, c5-7 A 7.5/10/15 + Aminopyralid 5 g/ha
# [43] = Papaver rhoeas, post-emergence, read-out: % visual injury Obs
smiles,measurement,setting,value
C/C(=N\NC(=O)Nc1cc(F)cc(F)c1)c1ncccc1C(=O)O [Diflufenzopyr],ABUTH Obs (% visual injury),[1]; diflufenzopyr 10 g/ha,38%
same,DIGSA Obs (% visual injury),[2]; diflufenzopyr 10 g/ha,0%
same,RUMOB Obs (% visual injury),[3]; diflufenzopyr 10 g/ha,8%
same,LOLMU Obs (% visual injury),[4]; diflufenzopyr 10 g/ha,8%
same,SETFA Obs (% visual injury),[5]; diflufenzopyr 10 g/ha,20%
same,KCHSC Obs (% visual injury),[6]; diflufenzopyr 10 g/ha,10%
same,ECHCG Obs (% visual injury),[7]; diflufenzopyr 10 g/ha,0%
same,POLCO Obs (% visual injury),[8]; diflufenzopyr 10 g/ha,5%
same,BRSNN Obs (% visual injury),[9],70%
same,CIRAR Obs (% visual injury),[10]; diflufenzopyr 10 g/ha,10%
same,VIOTR Obs (% visual injury),[11]; diflufenzopyr 10 g/ha,8%
same,ORYSA Obs (% visual injury),[12],8%
O=C(O)c1ccccc1C(=O)Nc1cccc2ccccc12 [Naptalam],"% visual injury, Obs",[1],0%
same,"% visual injury, Obs",[2],0%
same,"% visual injury, Obs",[13],0%
same,"% visual injury, Obs",[3],0%
same,"% visual injury, Obs",[4],0%
same,"% visual injury, Obs",[5],0%
same,"% visual injury, Obs",[14],0%
same,"% visual injury, Obs",[15],13%
same,"% visual injury, Obs",[6]; KCHSC,0%
same,"% visual injury, Obs",[7],0%
same,"% visual injury, Obs",[16],0%
same,"% visual injury, Obs",[17],0%
same,"% visual injury, Obs",[8],0%
same,"% visual injury, Obs",[18],35%
same,"% visual injury, Obs",[10]; CIRAR,0%
same,"% visual injury, Obs",[19],0%
same,plant injury at 140 g/ha,[20],0%
same,"% visual injury, Obs",[21],0%
same,"% visual injury, Obs",[22],0%
same,"% visual injury, Obs",[11],0%
"O=C(O)c1cc(I)cc(I)c1I [2,3,5-TIBA]","% visual injury, Obs",[1],0%
same,"% visual injury, Obs",[2],0%
same,"% visual injury, Obs",[13],0%
same,"% visual injury, Obs",[3],0%
same,"% visual injury, Obs",[4],0%
same,"% visual injury, Obs",[5],0%
same,"% visual injury, Obs",[14],0%
same,"% visual injury, Obs",[15],40%
same,"% visual injury, Obs",[6]; KCHSC,0%
same,"% visual injury, Obs",[7],0%
same,"% visual injury, Obs",[16],0%
same,"% visual injury, Obs",[17],0%
same,"% visual injury, Obs",[8],0%
same,"% visual injury, Obs",[18],0%
same,"% visual injury, Obs",[10]; CIRAR,0%
same,"% visual injury, Obs",[19],0%
same,plant injury at 140 g/ha,[20],0%
same,"% visual injury, Obs",[21],0%
same,"% visual injury, Obs",[22],0%
same,"% visual injury, Obs",[11],0%
"Nc1cc(Cl)nc(C(=O)O)c1Cl [Aminopyralid, aminopyralid, reference compound]",pest or weed control at 10 g/ha,"[13]; Stellaria media, post-emergence, read-out: % visual injury Obs",5%
same,% visual injury,[13]; [42],0%
same,pest or weed control at 10 g/ha,"[23]; Lamium purpureum, post-emergence, read-out: % visual injury Obs",10%
same,% visual injury,[23]; [42],0%
same,pest or weed control at 10 g/ha,"[6]; Bassia scoparia, post-emergence, KCHSC, Aminopyralid 10 g/ha, read-out: % visual injury Obs",10%
same,pest or weed control at 10 g/ha,"[24]; Anthemis arvensis, post-emergence, read-out: % visual injury Obs",60%
same,% visual injury,[24]; [42],10%
same,pest or weed control at 10 g/ha,[25],20%
same,pest or weed control at 10 g/ha,"[26]; Centaurea cyanus, post-emergence, read-out: % visual injury Obs",65%
same,% visual injury,[26]; [42],50%
same,pest or weed control at 10 g/ha,"[27]; Matricaria discoidea, post-emergence, read-out: % visual injury Obs",0%
same,% visual injury,[27]; [42],0%
same,% visual injury Obs,"[28]; HORVW, Aminopyralid 10 g/ha",0%
same,% visual injury (crop phytotoxicity),[28]; [42],0%
same,pest or weed control at 10 g/ha,"[8]; Fallopia convolvulus, post-emergence, read-out: % visual injury Obs",75%
same,pest or weed control at 10 g/ha,[29]; [43],65%
same,% visual injury,[29]; [42],50%
same,% visual injury Obs,"[30]; TRZAS, Aminopyralid 10 g/ha",0%
same,% visual injury (crop phytotoxicity),[30]; [42],0%
same,% visual injury,[31],60%
same,% visual injury Obs,"[32]; HORVS, Aminopyralid 10 g/ha",0%
same,% visual injury (crop phytotoxicity),[32]; [42],0%
same,pest or weed control at 10 g/ha,[33],10%
same,pest or weed control at 10 g/ha,"[34]; Viola arvensis, post-emergence, read-out: % visual injury Obs",10%
same,% visual injury,[34]; [42],25%
same,% visual injury Obs,"[35]; TRZAW, Aminopyralid 10 g/ha",0%
same,% visual injury (crop phytotoxicity),[35]; [42],0%
same,pest or weed control at 10 g/ha,"[36]; Capsella bursa-pastoris, post-emergence, read-out: % visual injury Obs",0%
same,% visual injury,[36]; [42],0%
same,pest or weed control at 10 g/ha,"[10]; Cirsium arvense, post-emergence, CIRAR, Aminopyralid 10 g/ha, read-out: % visual injury Obs",60%
same,plant injury at 10 g/ha,[20],10%
same,pest or weed control at 10 g/ha,"[37]; Veronica hederifolia, post-emergence, read-out: % visual injury Obs",25%
same,% visual injury,[37]; [42],0%
same,pest or weed control at 10 g/ha,[38],20%
same,pest or weed control at 10 g/ha,[39]; [43],65%
same,% visual injury,[39]; [42],30%
same,pest or weed control at 10 g/ha,"[40]; Veronica persica, post-emergence, read-out: % visual injury Obs",10%
same,% visual injury,[40]; [42],0%
same,pest or weed control at 10 g/ha,"[11]; Viola tricolor, post-emergence, read-out: % visual injury Obs",10%
same,% visual injury,[11]; [42],0%
same,pest or weed control at 10 g/ha,"[41]; Tripleurospermum inodorum, post-emergence, read-out: % visual injury Obs",60%
same,% visual injury,[41]; [42],10%
